The values below come from US10242153B2, “Method for determining the risk profile of neoplastic tissue” (NOVAZOI THERANOSTICS, priority 2014, dated 2019).

The test system of data set [1] is 231 cells. Kind of data set: Centrosome amplification (CA) by microscopy (γ-tubulin/centrin-2 foci), 231 cells. The class given is cell-based, human. Here is the method: Consequently, CA was assessed in cultures treated with different concentrations of declustering drugs for 6, 12, 18, or 24 h and untreated controls via microscopy. Centrosomes were identified by γ-tubulin and centrin-2 colocalization at discrete foci. […] The peak percent CA detected over 24 h is shown in FIG. 13 (only statistically significant (P<0.05) increases over control values are represented in the Figures). To better understand the “potency” of drug-induced CA with time, the average fold change in CA over controls over 24 h was assessed (FIG. 12, panel A), whereby the extent of CA across time points (i.e., 6, 12, 18, and 24 hr) was averaged and then divided by the extent of CA in control (i.e., 0 hr). All of the drugs at least doubled the peak extent of CA in all cell lines tested (FIG. 12, panel A), although the final extent of CA could be small or large in magnitude depending on the initial centrosomal burden as shown in FIG. 11. […] The peak extent in interphase HeLa cells was somewhat less at 30.7% and 48.1% for 10 and 25 μM RBN, respectively (FIG. 13, panel A). For Nos and BN, there was no major difference in CA levels in interphase versus mitotic cells.

The subject of data set [2] is human ovarian cancer xenografts. The note with it: nude mice carrying human ovarian cancer xenografts; cited from earlier work. On the technique in general: Xenograft models place foreign cells or tissue in a host animal.
Data set [3] deals with ZR-75-30 cells with amplified centrosomes (ZR-A). Kind of data set: Sub-G1 population in ZR-75-30 cells with amplified centrosomes (ZR-A) versus parent cells. It counts as cell-based. The note with it: 25 μM, 48 h. Here is the method: Panel A depicts representative DNA histograms comparing cell-cycle kinetics of ZR-75-30 cells and ZR-A cells treated with bromonoscapine (BN, 25 μM), griseofulvin (GF, 25 μM) or PJ34 (25 μM), respectively for 48 h. […] Panel B depicts a quantitative comparison of sub-G1 population in ZR-75-30 and ZR-A cells upon treatment with the three drugs with the same concentration (25 μM) for the same duration (48 h).
Accordingly, these cells can be pharmacologically manipulated with aphidicolin to generate extra centrosomes. […] Following aphidicolin wash-out, cells were stained using anti-centrin-2 antibodies to verify extra centrosomes by immunofluorescence confocal microscopy. About ˜60% ZR-75-30 cells generated extra centrosomes (6-8 per cell) and were evaluated for their sensitivity to the three drugs, griseofulvin, bromonoscapine, and PJ34, and compared with parent ZR-75-30 cells with normal centrosomes.

On to reduced-9-bromonoscapine [RBN], for which, in data set [1] (231 cells, 25 μM), the “change of peak CA extent over controls” value is reported as “slightly more than doubled”. Besides, the “final extent of CA” value in data set [1] (231 cells, 25 μM, cell cycle stage not stated) was “around 90%”. Besides, the “maximum extent of CA” value in data set [1] (interphase 231 cells, 10 μM) came out at 31%; in data set [1] (interphase 231 cells, 25 μM) it was 87%; in data set [1] (mitotic 231 cells, 10 μM), 56%; in data set [1] (mitotic 231 cells, 25 μM) it was 96%. Further, the “increase in CA over controls” value in data set [1] (mitotic 231 cells, 10 μM) is recorded as ~2.5 fold; in data set [1] (mitotic 231 cells, 25 μM) it was ~2.0 fold. Besides, the “toxicity in normal tissues” value in data set [2] is “toxicity was not detected”. For the same molecule, in data set [2], the tumor progression entry is “inhibited tumor progression”.

Take `CN(C)CC(=O)Nc1ccc2[nH]c(=O)c3ccccc3c2c1` [PJ, PJ-34]: the “sub-G1 population versus parent ZR-75-30 cells” value in data set [3] is recorded as “much higher sub-G1 population compared to parent ZR-75-30 cells”.
